Measurements: ChEMBL document CHEMBL1124729, “Plant antitumor agents. 29. Synthesis and biological activity of ring D and ring E modified analogues of camptothecin” (1990)
In brackets after ≈: the same amount, converted by molar mass. Activity calls are given as the source filed them. No cut-off for these calls is given here.

Legend:
KB cells (Homo sapiens) = experiment: The cytotoxic activity in vitro by 9KB assay method; details: read-out: ED50 (the source's name)
Mus musculus [1] = organism: Mus musculus; experiment: (§1) The cytotoxic activity was in vitro tested by 9PS assay method; format: functional; details: read-out: ED50 (the source's name)
Nucleic Acid [2] = experiment: The compound was tested for inhibitory activity against DNA relaxation by DNA topoisomerase I at dose 10-30 uM; Inactive; format: functional
L1210 [3] = experiment: The compound was tested in vivo for life prolongation against mouse L1210 tumor cells at 40 mg/kg concentration; Inactive; format: functional, organism-based; design: dose 40 mg/kg
P388 [4] = experiment: The compound was tested in vivo for life prolongation against mouse P388 tumor cells at 40 mg/kg concentration; No toxicity; format: functional, organism-based; design: dose 40 mg/kg
L1210 [5] = experiment: The compound was tested in vivo for life prolongation against mouse L1210 tumor cells at 4 mg/kg concentration; format: functional
Nucleic Acid [6] = experiment: The compound was tested for inhibitory activity against DNA relaxation by DNA topoisomerase I at dose 10 uM; format: functional
P388 [7] = experiment: The compound was tested in vivo for life prolongation against mouse P388 tumor cells at 4 mg/kg concentration; format: functional
Nucleic Acid [8] = experiment: The compound was tested for inhibitory activity against DNA relaxation by DNA topoisomerase I at dose 30 uM; format: functional
Mus musculus [9] = organism: Mus musculus; experiment: The cytotoxic activity in vitro by 9KB assay method.; format: functional; details: read-out: ED50 (the source's name)
[10] = The cytotoxic activity was in vitro tested by 9PS assay method.; format: functional; details: Mus musculus; read-out: ED50 (the source's name)
Nucleic Acid [11] = experiment: The compound was tested for inhibitory activity against DNA relaxation by DNA topoisomerase I at dose 100 uM; format: functional
L1210 [12] = experiment: The compound was tested in vivo for life prolongation against mouse L1210 tumor cells at 80 mg/kg concentration; Inactive; format: functional, organism-based; design: dose 80 mg/kg
L1210 (Mus musculus) [13] = experiment: The compound was tested in vivo for life prolongation against mouse L1210 tumor cells at 80 mg/kg concentration; No toxicity
P388 [14] = experiment: The compound was tested in vivo for life prolongation against mouse P388 tumor cells at 8 mg/kg concentration; format: functional
[15] = as §1; format: functional; details: Mus musculus; read-out: ED50 (the source's name)
L1210 (Mus musculus) [16] = experiment: The compound was tested in vivo for life prolongation against mouse L1210 tumor cells at 30 mg/kg concentration; Nontoxic
L1210 [17] = experiment: The compound was tested in vivo for life prolongation against mouse L1210 tumor cells at 30 mg/kg concentration; Inactive; format: functional, organism-based; design: dose 30 mg/kg

Row | Compound | EC50 (KB cells (Homo sapiens)) | EC50 (Mus musculus [1]) | inhibition (Nucleic Acid [2]) | inhibition (Nucleic Acid [8]) | further results
1 | CCC1(N)C(=O)OCc2c1cc1n(c2=O)Cc2cc3ccccc3nc2-1.Cl (centres undefined) | 1.6 µg/mL | 3.4 µg/mL | inactive | – | T/C x100 (L1210 [3]): inactive; T/C x100 (P388 [4]): No toxicity
2 | CC[C@@]1(O)C(=O)OCc2c1cc1n(c2=O)Cc2cc3ccccc3nc2-1 [CAMPTOTHECIN] | 0.02 µg/mL (≈ 0.0574 µM) | 0.08 µg/mL (≈ 0.23 µM) | – | 85% | T/C x100 (L1210 [5]): 200%; inhibition (Nucleic Acid [6]): 76%; T/C x100 (P388 [7]): 199%
3 | CCC1(O)C(=O)OCc2cc3c(cc21)-c1nc2ccccc2cc1C3 (centres undefined) | – | – | – | 6% | EC50 (Mus musculus [9]): 1.3 µg/mL (≈ 3.92 µM); EC50 [10]: 2.5 µg/mL (≈ 7.54 µM); inhibition (Nucleic Acid [11]): 38%
4 | CC[C@@]1(O)C(=O)NCc2c1cc1n(c2=O)Cc2cc3ccccc3nc2-1 | > 10 µg/mL | 3 µg/mL (≈ 8.64 µM) | inactive | – | T/C x100 (L1210 [12]): inactive; T/C x100 (L1210 (Mus musculus) [13]): No toxicity
5 | CCC1(O)C(=O)OCc2c1cc1n(c2=O)Cc2cc3ccccc3nc2-1 (centres undefined) | 0.03 µg/mL (≈ 0.0861 µM) | – | – | 48% | T/C x100 (P388 [14]): 220%; inhibition (Nucleic Acid [6]): 39%; EC50 [15]: 0.04 µg/mL (≈ 0.115 µM); inhibition (Nucleic Acid [11]): 70%
6 | CCC1(O)C(=O)OCc2c1ccc1c2-c2nc3ccccc3cc2C1 (centres undefined) | > 10 µg/mL | > 10 µg/mL | – | 0% | –
7 | CCC1(N=[N+]=[N-])C(=O)OCc2c1cc1n(c2=O)Cc2cc3ccccc3nc2-1 (centres undefined) | > 10 µg/mL | > 10 µg/mL | inactive | – | T/C x100 (L1210 (Mus musculus) [16]): Non-toxic; T/C x100 (L1210 [17]): inactive
